Experimental data published in patent publication US8293716B2, “Method of treating cancer by modulation of mortalin” (Ramot At Tel Aviv University Ltd., priority 2005, dated 2012).
Where a SMILES comes first, the peptide text is derived from it. The star is where a group is joined. Cbz = O=C(OCc1ccccc1)*; CH2F = FC*

Experiments:
[1] = test system: solid tumors; details: cited from earlier work
[2] = test system: K562 cells; assay: Complement-induced protection assay; type: cell-based, human; details: cells pre-treated with inhibitor and sublytic complement, then lytic dose of antibody and complement; FIGS. 6f-g
Method: (§1) Cell lysis and induced protection assays: Cytotoxicity assays were performed as previously described (Reiter, Y. and Fishelson, Z. 1992. Mol Immunol 29:771). Briefly, cells were incubated with diluted anti-K562 antiserum for 30 minutes at 4 degrees centigrade and then with complement (NHS, C7- or C8-deficient serum or HI-NHS, 50 percent) for 60 minutes at 37 degrees centigrade. Cell lysis was determined via Trypan blue staining. For the complement-induced protection assays, the cells were first treated with sublytic doses of antibody and NHS, washed and then incubated with lytic doses of antibody and NHS (Reiter, Y. et al., 1992. Eur J Immunol 22:1207). Statistical significance was analyzed by using the two-sided unpaired student's t-test.

[3] = test system: mortalin; assay: Mortalin release into supernatants of K562 cells, SDS-PAGE and Western blotting; type: cell-based, human; details: for release of mortalin from complement-treated cells: 30 minutes pretreatment (PMB 100 micrograms per milliliter, PD98059 10 micromolar), then sublytic anti-K562 antibody and NHS, FIGS. 6a-d; for mortalin release in response to sublytic dose of pore-former: mellitin 70 micromolar, SLO 900 units per milliliter, 10 minutes 37 degrees, no complement, FIGS. 4c-d
Method: (§2) Collection of extracellular protein: Cells were treated with antibodies for 30 minutes at 4 degrees centigrade and then with NHS or HI-NHS (50 percent) for 10 minutes at 37 degrees centigrade. Then, the cells were extensively washed into HBSS and incubated at 37 degrees centigrade. At different times, cells were removed by centrifugation at 250×g and supernatants were collected and kept frozen until analyzed. In some experiments, cells were first metabolically labeled for 2 hours at 37 degrees centigrade with an L-[^35S]methionine, L-[^35S]cysteine mix (Amersham Pharmacia, Uppsala, Sweden) at 200 microcuries per milliliter in RPMI (lacking methionine and cysteine) and 20 millimolar HEPES-pH 7.0. Cytotoxicity assays and collection of extracellular proteins were performed as described above. Radioactivity in the supernatants was quantified in a beta-Scintillation Counter (Tri-Carb, Packard).
Protein analyses: Protein concentration was analyzed with the BCA Protein Assay Kit (Pierce, Rockford, Ill., USA). Samples of 20 micrograms of protein was subjected to SDS-PAGE under reducing conditions (50 millimolar DTT), in a 10 percent acrylamide gel, and stained with Coomassie Blue or silver. Selected protein species were excised from Coomassie Blue-stained gels and analyzed by mass spectrometry (MALDI-MS) at the Maiman Institute for Proteome Research (Tel-Aviv University). Alternatively, the electrophoretically separated proteins were transferred onto a nitrocellulose membrane (Schleicher & Schuell, Dassel, Germany). The membrane was blocked with 5 percent skim milk (Tnuva, Rehovot, Israel) in Tris-buffered saline containing 0.05 percent Tween-20 (Sigma; TBST) for 1 hour at room temperature. The membrane was treated with rabbit anti-mortalin antibodies and then with peroxidase-conjugated goat anti-rabbit IgG. The labeled membrane was developed with an enhanced chemiluminescence reagent (Pierce, Rockford, Ill., USA) and exposed to a SuperRX film (Fuji, Tokyo, Japan).

[4] = test system: K562 cells; assay: Release of metabolically-labeled proteins from complement-treated K562 cells; type: cell-based, human; details: pretreatment 30 minutes with 100 micrograms per milliliter PMB or 10 micromolar PD; radioactivity in supernatants; FIG. 6e
Method: as §2

[5] = test system: K562 cells; assay: Complement-mediated cell lysis (cytotoxicity) assay, Trypan blue staining; type: cell-based, human; details: 10 micromolar cathepsin L inhibitor 30 minutes, anti-K562 1:40 or 1:50, NHS 60 minutes; versus DMSO; FIG. 8b
Method: (§3) Cells and cell lysates: The human erythroleukemic cell line K562 was cultured in RPMI-1640 medium supplemented with 10 percent (v/v) heat-inactivated fetal bovine serum (Gibco laboratories, Grand Island, NY, USA), 1 percent glutamine, 2 percent pyruvate and antibiotics mixture (Bio-Lab, Jerusalem, Israel), at 37 degrees centigrade in a 5 percent carbon dioxide atmosphere. To prepare cell lysates, 20 million cells were mixed with 1 milliliter lysis buffer composed of 100 millimolar Tris-pH 7.5, 10 millimolar EDTA, protease inhibitor cocktail (Sigma) and 0.7 percent Triton X-100. After 3 cycles of freezing and thawing, the cell lysate was subjected to centrifugation for 15 minutes at 14,000×g, and the supernatant was collected and diluted with 1 milliliter HBSS (Sigma, Rehovot, Israel).
as §1, with “For the complement-induced protection assays, the cells were first treated with sublytic doses of antibody and NHS, washed and then incubated with lytic doses of antibody and NHS (Reiter, Y. et al., 1992. Eur J Immunol 22:1207).” left out

[6] = test system: mortalin; assay: Mortalin expression level in K562 cells, Western blotting of cell lysates; type: cell-based, human; details: cathepsin L inhibitor 5, 10, 20 or 40 micromolar, 30 minutes 37 degrees; FIG. 8a
Method: as §3
Protein analyses: Protein concentration was analyzed with the BCA Protein Assay Kit (Pierce, Rockford, Ill., USA). Samples of 20 micrograms of protein was subjected to SDS-PAGE under reducing conditions (50 millimolar DTT), in a 10 percent acrylamide gel, and stained with Coomassie Blue or silver. Selected protein species were excised from Coomassie Blue-stained gels and analyzed by mass spectrometry (MALDI-MS) at the Maiman Institute for Proteome Research (Tel-Aviv University). […]

Compound	acquired resistance to lytic complement after sublytic complement [2]	release of mortalin from complement-treated cells [3]	complement-induced release of metabolically-labeled proteins [4]	mortalin release in response to sublytic dose of pore-former [3]	further results
CCn1c(=O)/c(=C2\Sc3ccccc3N2C)s/c1=C\c1cccc[n+]1CC.[Cl-] [MKT-077]	–	–	–	–	kidney toxicity in human patients ([1]; Propper et al. 1999): irreversible kidney damage; effectiveness when used to treat cancer patients ([1]; cancer patients): ineffective or suboptimally effective
COc1cccc(-c2cc(=O)c3ccccc3o2)c1N [PD98059]	did not acquire the resistance to lytic complement	significantly reduced	blocked	–	–
O=C(N[C@@H](Cc1ccccc1)C(=O)N[C@@H](Cc1ccccc1)C(=O)CF)OCc1ccccc1 [cathepsin L inhibitor, Z-Phe-Phe-CH2F] (Cbz-Phe-Phe-CH2F)	–	–	–	–	resistance of treated cells to lysis by antibody and complement [5]: enhanced resistance; mortalin expression in K562 cells [6]: elevation of mortalin expression
Streptolysin O [SLO]	–	–	–	not released	–
mellitin	–	–	–	not released	–
polymyxin B [PMB]	did not acquire the resistance to lytic complement	significantly reduced	blocked	–	–
